Results: patent US20190309066A1, “COMBINATION THERAPY FOR THE TREATMENT OF SOLID AND HEMATOLOGICAL CANCERS” (Arch Oncology, Inc., priority 2017, published 2019)
Values joined by “and” are separate entries in the source; they are usually repeats but may differ in a detail not shown here. Identical values can stand only once.

System: RPMI-8226 tumors
Experiment: RPMI-8226 multiple myeloma xenograft in NSG mice
Type: in vivo, mouse
Description: The purpose of this experiment was to evaluate the efficacy of anti-CD47 antibodies as a single agent and in combination with the proteasome inhibitor Bortezomib in the tumor growth inhibition in vivo in a xenograft mouse model of multiple myeloma. RPMI-8226 human multiple myeloma cells (ATCC #CCL-155, Manassas, Va.) were maintained in RPMI-1640 (Lonza; Walkersville, Md.) supplemented with 10% Fetal Bovine Serum (FBS; Omega Scientific; Tarzana, Calif.) and 1% Penicillin/Streptomycin (Corning, Manassas, Va.) within a 5% CO2 atmosphere. Cultures were expanded in tissue culture flasks.
Female NSG (NOD-Cg-Prkdc^scidI12rg^tm1Wjl/SzJ) were obtained from Jackson Laboratory (Bar Harbor, Me.) at 5-6 weeks of age. Mice were acclimated prior to handling and housed in microisolator cages (Lab Products, Seaford, Del.) under specific pathogen-free conditions. Mice were fed Teklad Global Diet® 2920× irradiated laboratory animal diet (Envigo, Formerly Harlan; Indianapolis, Ind.) and provided autoclaved water ad libitum. All procedures were carried out under the institutional guidelines of Translational Drug Development Institutional Animal Care and Use Committee (Protocol #18105). Animals were identified using transponders.
Female NSG mice were inoculated subcutaneously in the right flank with 0.1 mL of a 30% RPMI/70% Matrigel™ (BD Biosciences; Bedford, Mass.) mixture containing a suspension of 1×10^7 RPMI-8226 tumor cells. Fifteen days following inoculation, mice were randomized Test articles human IgG2 (hIgG2), an anti-CD47 antibody, and Bortezomib (LC Labs, Woburn, Mass.) were administered by intravenous (IV) injection. hIgG2 and anti-CD47 mAb were dosed on Days 0, 7, 14, 21, 28, and 35, while Bortezomib was dosed on Days 1, 4, and 12. as described below in Table 12.
Mean tumor growth inhibition (TGI) was calculated for Day 48 (the final day all mice were on study) utilizing the following formula.
The mean TS of each group was calculated and reported.
All statistical analyses in the xenograft study were performed with Prism GraphPad® software. Differences in Day 48 tumor volumes were confirmed using a one-way ANOVA, unpaired, parametric with the Tukey's Multiple Comparison test with Welch's correction. A two-tailed Student's t-test with Welch's correction was also used to verify any differences between each group and the vehicle control.
For statistical analysis purpose, any mouse sacrificed as an long term survivor (LTS) was assigned a death day of Day 99.

SMILES: CC(C)C[C@H](NC(=O)[C@H](Cc1ccccc1)NC(=O)c1cnccn1)B(O)O [Bortezomib]
- Mean Day of Survival Days ± SEM (Bortezomib 1 mg/kg): 76.8 ± 1.6 days
- Median Day of Survival (Min-Max) (Bortezomib 1 mg/kg): 78 (70-84) Days
- Day 48 Mean Tumor Volume (mm^3) (Bortezomib 1 mg/kg IV): 177 ± 20 mm^3
- tumor shrinkage (in words) (Bortezomib 1 mg/kg IV monotherapy): no tumor shrinkage was recorded
- Day 48 % TGI (Bortezomib 1 mg/kg IV, vs hIgG2 control): 96.2% and 96.2 (10) %
- Day 48 Outcome (ANOVA), tumor volume vs hIgG2 (Group 1) (P value, Bortezomib 1 mg/kg): P < 0.05
- Day 48 Outcome (Student's t-test), tumor volume vs hIgG2 (Group 1) (P value, Bortezomib 1 mg/kg): P < 0.05
- Survival Log-Rank Outcome vs hIgG2 (Group 1) (P value, Bortezomib 1 mg/kg): P < 0.05
